According to patent US4550101A, “Iron complexes of hydroxy pyridones useful for treating iron deficiency anemia” (priority 1982, dated 1985):
Like-named read-outs stand apart in the source and are kept apart here.

Experiments:
human erythrocytes [1] = conditions: pH 7.4
Protocol: (§1) Following this period of incubation, an aliquot of the erythrocyte/medium mixture was placed above a layer of silcone oil and the erythrocytes separated by centrifugation through the oil. The ^59 Fe levels associated with the erythrocytes and the incubation medium were then counted.

[2] = Partition between n-octanol and aqueous tris hydrochloride (Kpart); format: physicochemical; conditions: for Partition Coefficient, Kpart, Iron complex [Fe^III-(compound)3]: 100 µM
Protocol: Acid washed glassware is used throughout and, following mixing of 5 ml of the 10^-4 M aqueous solution with 5 ml of n-octanol for 1 minute, the aqueous n-octanol mixture is centrifuged at 1,000 g for 30 seconds. The two resulting phases are separated for a concentration determination by spectrophotometry on each.

rat jejunal sac = experiment: Iron uptake into the serosal space of the inverted rat jejunal sac
Protocol: Rats (male Sprague Dawley, 60 g) were killed and the jejunum removed, everted and cut into three segments (4 cm length). The segments were tied at both ends and filled with Krebs Ringer buffer (0.2 ml) and incubated in Krebs Ringer buffer containing ^59 Fe complexes at 37° C. for periods up to 1 hour. The contents of the sac were counted for ^59 Fe and measured spectrophotometrically.

human erythrocytes [3] = experiment: Accumulation of iron complexes by human erythrocytes; conditions: 1 hour, 37° C., pH 7.4, 10^-3 M complex, 5% erythrocyte suspension; mean of at least three determinations
Protocol: as §1

apotransferrin = experiment: Ability of iron complexes to donate iron to apotransferrin; format: biochemical; conditions: within 10 minutes, 37° C., pH 7.4, 10^-4 M complex, 10^-4 M apotransferrin
Protocol: At 10, 20, 30 and 60 minute intervals 1 ml aliquots were removed from the media and added to a PD10 colum. 0.5 ml fractions were collected directly into scintillation vials for counting. The ^59 Fe associated with both the apotransferrin and the ligand was estimated as a function of time. […] Thus, although both the 3-hydroxypyrid-2-ones and the 3-hydroxypyrid-4-ones are able to denote iron to apotransferrin, the former are the more efficient.

cat intestine [4] = experiment: In vivo permeability of cat intestine towards iron complexes: 59Fe in blood, kidneys, urine and tissues after administration into the small intestine; conditions: for Concentration of [59Fe] in blood: 1 mg iron, pyridone complex with 20-fold excess of free pyridone
Protocol: (§2) The total ^59 Fe present in the kidneys and urine was then measured in each case.
(§3) As well as the kidneys, various other tissues of the cat which recieved the Fe(III) 1-ethyl-3-hydroxypyrid-2-one were studied to assess the percentage of the original ^59 Fe dose which was present.

[5] = Clearance and tissue distribution of 59Fe after intravenous injection in the cat; format: in vivo
Text: as §3

cat intestine [6] = conditions: in vivo
Protocol: as §2, §3

[7] = n-octanol / 20 mM tris hydrochloride pH 7.4, 20° C., 10^-4 M, read-out: Partition Coefficient, Kpart, Free Compound (converted)
[8] = n-octanol/tris hydrochloride, pH 7.4
[9] = relative to ferric chloride as 1, 37° C., up to 1 hour

CCCn1ccc(=O)c([O-])c1C.CCCn1ccc(=O)c([O-])c1C.CCCn1ccc(=O)c([O-])c1C.[Fe+3] [3:1 iron (III) complex of 3-hydroxy-2-methyl-1-propylpyrid-4-one]
Amount of complex entering erythrocytes (human erythrocytes [1]): 53 n.mole

CCn1ccc(=O)c(O)c1C [1-ethyl-3-hydroxy-2-methylpyrid-4-one, 1-Ethyl-3-hydroxy-2-methylpyrid-4-one]
logD at 100 µM [2, 7]: -0.398

CCCn1cccc([O-])c1=O.CCCn1cccc([O-])c1=O.CCCn1cccc([O-])c1=O.[Fe+3] [3:1 iron (III) complex of 3-hydroxy-1-propylpyrid-2-one]
Amount of complex entering erythrocytes (human erythrocytes [1]): 710 n.mole
Partition Coefficient, Kpart, Iron complex [Fe^III-(compound)3] [2, 8]: 6.20

O=C([O-])[C@H](O)[C@@H](O)[C@H](O)[C@H](O)CO.O=C([O-])[C@H](O)[C@@H](O)[C@H](O)[C@H](O)CO.[Fe+2] [Fe^II gluconate]
Relative Iron Uptake (rat jejunal sac): 1.6

CC(C)n1cccc(O)c1=O [3-hydroxy-1-(1'-methylethyl)-pyrid-2-one, 3-hydroxy-1-(1'-methylethyl)pyrid-2-one]
logD at 100 µM [2, 8]: 0.491

CCCCn1ccc(=O)c([O-])c1C.CCCCn1ccc(=O)c([O-])c1C.CCCCn1ccc(=O)c([O-])c1C.[Fe+3] [3:1 iron (III) complex of 1-butyl-3-hydroxy-2-methylpyrid-4-one]
Amount of complex entering erythrocytes (human erythrocytes [1]): 1630 n.mole
Partition Coefficient, Kpart, Iron complex [Fe^III-(compound)3] [2, 8]: 7.70

[Cl][Fe]([Cl])[Cl] [FeCl3, ferric chloride]
Relative Iron Uptake (rat jejunal sac): 1

Cc1c([O-])c(=O)ccn1C(C)C.Cc1c([O-])c(=O)ccn1C(C)C.Cc1c([O-])c(=O)ccn1C(C)C.[Fe+3] [3:1 iron (III) complex of 3-hydroxy-1-(1'-methylethyl)-2-methylpyrid-4-one]
Amount of complex entering erythrocytes (human erythrocytes [1]): 22 n.mole
Partition Coefficient, Kpart, Iron complex [Fe^III-(compound)3] [2, 8]: 0.20

CCn1cccc([O-])c1=O.CCn1cccc([O-])c1=O.CCn1cccc([O-])c1=O.[Fe+3] [iron complex of 1-ethyl-3-hydroxypyrid-2-one]
Amount of complex entering erythrocytes (human erythrocytes [3]): 250 n.mole
Partition Coefficient, Kpart, Iron complex [Fe^III-(compound)3] ([2]; n-octanol / 20 mM tris hydrochloride pH 7.4, 20° C., 10^-4 M): 1.06
Relative Iron Uptake (rat jejunal sac; [9]): 37
iron removed from the iron complex by apotransferrin (apotransferrin): over 90%
Concentration of [59Fe] in blood (cat intestine [4]; 20 minutes after administration into small intestine): 200 c.p.m.
Concentration of [59Fe] in blood (cat intestine [4]; 40 minutes after administration into small intestine): 475 c.p.m.
Concentration of [59Fe] in blood (cat intestine [4]; 60 minutes after administration into small intestine): 643 c.p.m.
Concentration of [59Fe] in blood (cat intestine [4]; 80 minutes after administration into small intestine): 661 c.p.m.
Concentration of [59Fe] in blood (cat intestine [4]; 100 minutes after administration into small intestine): 784 c.p.m.
Concentration of [59Fe] in blood (cat intestine [4]; 120 minutes after administration into small intestine): 870 c.p.m.
Concentration of [59Fe] in blood (cat intestine [4]; 140 minutes after administration into small intestine): 834 c.p.m.
Concentration of [59Fe] in blood (cat intestine [4]; 160 minutes after administration into small intestine): 750 c.p.m.
Concentration of [59Fe] in blood (cat intestine [4]; 180 minutes after administration into small intestine): 900 c.p.m.
clearance into the urine (cat intestine [4]; 4 hours, into small intestine): very slow
percentage of the total dose in the kidneys (cat intestine [4]; 4 hours, into small intestine): 0.05%
percentage of the total dose in the urine (cat intestine [4]; 4 hours, into small intestine): no more than 0.01%
Concentration of [59Fe] in blood (cat intestine [4]; 240 minutes after administration into small intestine): 948 c.p.m.
59Fe in the sternum (cat intestine [4]; confirms reticuloendothelial system (bone marrow)): high levels of ^59 Fe in the sternum
distribution of the iron in the body (cat intestine [4]; intrajejunal): widely distributed throughout the body
Percentage of original 59Fe dose, Blood (cat intestine [4]; intrajejunal, after 4 hours): 3%
Percentage of original 59Fe dose, Heart (cat intestine [4]; intrajejunal, after 4 hours): 1.5%
Percentage of original 59Fe dose, Intestinal Tissue (cat intestine [4]; intrajejunal, after 4 hours): 30%
Percentage of original 59Fe dose, Kidneys (cat intestine [4]; intrajejunal, after 4 hours): 0.05%
Percentage of original 59Fe dose, Liver (cat intestine [4]; intrajejunal, after 4 hours): 1.6%
Percentage of original 59Fe dose, Skeletal Muscle (cat intestine [4]; intrajejunal, after 4 hours): 0.8%
Percentage of original 59Fe dose, Spleen (cat intestine [4]; intrajejunal, after 4 hours): 0.1%
Percentage of original 59Fe dose, Urine (cat intestine [4]; intrajejunal, after 4 hours): 0.01%
Percentage of original 59Fe dose, Reticuloendothelial System (Bone Marrow) (cat intestine [4]; intrajejunal, after 4 hours, estimated): ~60%
dose appearing in the urine [5]: less than 1%
half life of clearance from the circulation [5]: 45 min
Percentage of original 59Fe dose, Blood ([5]; after 4 hours): 7%
Percentage of original 59Fe dose, Heart ([5]; after 4 hours): 1.1%
Percentage of original 59Fe dose, Kidneys ([5]; after 4 hours): 1%
Percentage of original 59Fe dose, Liver ([5]; after 4 hours): 5.3%
Percentage of original 59Fe dose, Skeletal Muscle ([5]; after 4 hours): 0.5%
Percentage of original 59Fe dose, Spleen ([5]; after 4 hours): 0.7%
Percentage of original 59Fe dose, Urine ([5]; after 4 hours): 0.5%
Percentage of original 59Fe dose, Reticuloendothelial System (Bone Marrow) ([5]; after 4 hours, estimated): ~80%

O=C1O[C@H]([C@@H](O)CO)C(O)=C1O [Fe^III ascorbate, iron (III) ascorbate, reference compound]
logD at 100 µM [2, 8]: -2.82
Relative Iron Uptake (rat jejunal sac; [9]): 0.4

Cc1c([O-])c(=O)ccn1C.Cc1c([O-])c(=O)ccn1C.Cc1c([O-])c(=O)ccn1C.[Fe+3] [3:1 iron (III) complex of 3-hydroxy-1,2-dimethylpyrid-4-one]
Amount of complex entering erythrocytes (human erythrocytes [1]): 25 n.mole
Partition Coefficient, Kpart, Iron complex [Fe^III-(compound)3] [2, 8]: 0.05

CCn1ccc(=O)c([O-])c1C.CCn1ccc(=O)c([O-])c1C.CCn1ccc(=O)c([O-])c1C.[Fe+3] [3:1 iron (III) complex of 1-ethyl-3-hydroxy-2-methylpyrid-4-one]
Amount of complex entering erythrocytes (human erythrocytes [1]): 20 n.mole
Partition Coefficient, Kpart, Iron complex [Fe^III-(compound)3] [2, 8]: 0.03
iron removed from the iron complex by apotransferrin (apotransferrin): 55%

Cn1cccc(O)c1=O [3-hydroxy-1-methylpyrid-2-one]
logD at 100 µM [2, 8]: -0.357

CCn1cccc(O)c1=O [1-ethyl-3-hydroxypyrid-2-one]
logD at 100 µM [2, 8]: -0.284

Cn1cccc([O-])c1=O.Cn1cccc([O-])c1=O.Cn1cccc([O-])c1=O.[Fe+3] [3:1 iron (III) complex of 3-hydroxy-1-methylpyrid-2-one]
Amount of complex entering erythrocytes (human erythrocytes [1]): 60 n.mole
Partition Coefficient, Kpart, Iron complex [Fe^III-(compound)3] [2, 8]: 0.10

CC(C)n1cccc([O-])c1=O.CC(C)n1cccc([O-])c1=O.CC(C)n1cccc([O-])c1=O.[Fe+3] [3:1 iron (III) complex of 3-hydroxy-1-(1'-methylethyl)pyrid-2-one]
Amount of complex entering erythrocytes (human erythrocytes [1]): 770 n.mole
Partition Coefficient, Kpart, Iron complex [Fe^III-(compound)3] [2, 8]: 13.50

Cc1c(O)c(=O)ccn1C [3-hydroxy-1,2-dimethylpyrid-4-one]
logD at 100 µM [2, 8]: -0.678

CCCn1cccc(O)c1=O [3-hydroxy-1-propylpyrid-2-one]
logD at 100 µM [2, 8]: -0.108

CCCCn1ccc(=O)c(O)c1C [1-butyl-3-hydroxy-2-methylpyrid-4-one, 1-Butyl-3-hydroxy-2-methylpyrid-4-one]
logD at 100 µM [2, 7]: 0.724

Cc1c(O)c(=O)ccn1C(C)C [3-Hydroxy-2-methyl-1-(1'-methylethyl)pyrid-4-one]
logD at 100 µM [2, 7]: -0.0223

O=C([O-])CN(CCN(CC(=O)[O-])CC(=O)[O-])CC(=O)[O-].[Fe+3] [Fe^III EDTA, iron (III) EDTA]
percentage of the total dose in the urine (cat intestine [6]; cat, 4 h): 21%
clearance into the urine (cat intestine [6]): cleared rapidly into the urine
